Reference: patent US20230172940A1, “METHODS OF EXTENDING LIFESPAN BY ADMINISTERING FERROPTOSIS INHIBITORS” (COLLABORATIVE MEDICINAL DEVELOPMENT, LLC, priority 2020, published 2023)
Several values for one entry are separate records, joined by “and”; a condition that tells them apart may be missing. Equal entries are not always repeated. Structures can show the parent of a compound that is named as a salt. Marks after values point to notes of the source that are not given here.

Legend:
C. elegans iron-proteome = experiment: Size exclusion chromatography-ICP-MS of soluble iron; type: in vivo, Caenorhabditis elegans; conditions: aged C. elegans (10 days post adulthood)
Procedure: Liquid chromatography was performed using established protocols. Briefly^o samples of aged C. elegans were lysed using a Bioruptor Next Gen (Diagenode) bath sonicator set on HIGH and cooled to 4° C. using 10 cycles of 10 sec ON and 10 sec OFF^o in a 1:1 volume ratio of Tris-buffered saline (pH 8.0) with added proteinase inhibitors (EDTA-free; Roche). Sample homogenization was confirmed by microscopic inspection. Lysates were then centrifuged for 15 min at 175^o000 g at 4° C. The supernatant was removed and total protein concentration in the soluble fraction was determined using a NanoDrop UV spectrometer (Thermo Fisher Scientific) before being transferred to standard chromatography vials with polypropylene inserts (Agilent Technologies) and kept at 4° C. on a Peltier cooler for analysis. Size exclusion chromatography-inductively coupled plasma-mass spectrometry was performed using an Agilent Technologies 1100 Series liquid chromatography system with a BioSEC 5 SEC column (5 μm particle size^o 300 Å pore size^o I.D. 4.6 mm^o Agilent Technologies) and 7700× Series ICP-MS as previously described (Hare et al.^o 2016b). A buffer of 200 mM NH4NO3 was used for all separations at a flow rate of 0.4 mL min^−1. A total of 50 μg of soluble protein was loaded onto the column by manually adjusting the injection volume for each sample. Mass-to-charge ratios (m/z) for phosphorus (31) and iron (56) were monitored in time resolved analysis mode. Plots of the mean (±standard deviation) of three independent biological replicates are shown. Integration of the three major peaks was performed using Prism (ver. 7 for Mac OS X, Graphpad).

[1] = system: Hydroxynonenal (4-HNE) protein adducts; experiment: Lipid peroxidation: 4-HNE protein adducts (immunoblot); type: in vivo, Caenorhabditis elegans; conditions: qualitative
Procedure: Analysis of Hydroxynonenal (4-HNE) protein adducts was also used as a proxy for lipid peroxidation. Duplicate samples of 50 and 200 worms were collected and washed twice in S-basal^o pelleted by centrifugation and the supernatant discarded. These samples (^˜30 μL) were frozen in liquid-N2 and stored at −80° C. until needed. To each sample an 10 μL 4× Bolt LDS sample buffer (Invitrogen) and 3 μL TCEP (Invitrogen) was added and the sample heated to 95° C. for 10 min. Lysates were loaded onto NuPAGE™ 4-12% Bis-Tris acrylamide gels (1.0 mm^o 10-well^o Invitrogen)^o electrophoresed with MES running buffer and then transferred onto 0.45 μm PVDF membrane by electroblot using a Mini Blot module (Invitrogen). 4-HNE protein adducts were detected by an anti 4-HNE protein adduct antibody (1:2000^o AB5605^o Millipore) in Tris-buffer saline with 5% skim milk^o and ECL (GE Healthcare). The membranes were stripped using a 1× ReBlot Strong Antibody Stripping Solution (Merck) for 15 min^o reprobed for tubulin using an anti-Tubulin antibody (1:10^o000^oT6074^o Sigma-Aldrich).

OP50 E. coli = experiment: Bacterial growth assay (OD600); type: cell-based, Escherichia coli; conditions: after 12 hours, 37° C
Procedure: The effects of test compounds on growth of the OP50 E. coli feed was assayed using optical density at 600 nm (OD600). Using standard microtitre plates, replicate wells of 200 μL of sterile Luria broth were inoculated with 2 μL of an overnight OP50 culture in addition to the stated final concentrations of ampicillin (Amp), Lip-1 and SIH. OD600 measures were taken after 12 hours in an EnSpire (PerkinElmer) spectrophotometric plate reader preset to 37° C., with 30 sec of 200 rpm orbital shaking every 10 minutes.
Data was averaged across duplicate experiments, each with eight replicate wells per treatment where a baseline of Luria broth without an inoculate was subtracted.

C. elegans strain TJ1060 = experiment: Lifespan determination; type: in vivo, Caenorhabditis elegans; conditions: for average increase in median lifespan: 8 independent replicates, 200 μM Lip-1 or 250 μM SIH; for effect on survival curve: in vivo
Procedure: Lifespan was measured using established protocols. SIH was dissolved in neat dimethyl sulfoxide (DMSO; Sigma-Aldrich) then added to the molten NGM at 55° C. (to a final concentration of 250 μM SIH in 0.5% v/v DMSO). Lip-1 was dissolved in neat DMSO then added to the molten NGM at 55° C. (to a final concentration of 200 μM Lip-1 in 0.5% v/v DMSO). Media containing equivalent vehicle alone (0.5% v/v DMSO) was used for comparison. Standard overnight culture of the Escherichia coli (E. coli) strain OP50 was used as the food source.
Lifespan data was collected at 25 (±1) ° C. using the temperature sensitive-sterile strain TJ1060 [spe-9(hc88); fer-15(b26)]. A synchronous population was obtained by transferring egg-laying adults to fresh plates at 16° C. for 2-3 hours. The adults were removed and the plates with eggs then transferred to 25° C. to ensure sterility. After 48 hours at 25° C., when worms were at the late L4/young adult stage, 25-35 nematodes were transferred to fresh plates containing either vehicle control, 250 μM SIH, or 200 μM Lip-1. All plates were coded to allowing blinding of the experimenter to the treatment regime during scoring. Nematodes were scored for survival at one to three-day intervals and transferred to freshly prepared plates as needed (2-5 days).
It is well documented that differences are observed between independent measures of lifespan, with micro-environmental factors such as minor temperature fluctuations potentially resulting differences in median and maximum lifespan between replicates. After determining the optimal doses of 250 μM SIH and 200 μM Lip-1, respectively, cohorts of nematodes were compared in 8 independent replicates. As the number of worms measured is known to influence the likelihood of accurately observing differences in lifespan, the starting populations for all treatments within experiments were in excess of 70 individuals.

C. elegans [2] = experiment: Antibiotic tests: lifespan with ampicillin co-administration; type: in vivo, Caenorhabditis elegans
Procedure: To determine whether the increased lifespan seen with SIH treatment could be explained solely by an antibiotic effect of iron reduction, nematodes were treated with ampicillin, with and without SIH co-administration. Even in the presence of ampicillin, SIH increased median lifespan by 6 days, similar to its benefits in the absence of ampicillin (median increase of 7 days).

C. elegans [3] = conditions: DEM at 10-100 μM, minor glutathione loss; cited from earlier work
[4] = 250 μM SIH, days of adulthood at 25 (±1)° C, single replicate experiments 1-8
[5] = 200 μM Lip-1, days of adulthood at 25 (±1)° C, single replicate experiments 1-8

Structure (SMILES): O=C(N/N=C/c1ccccc1O)c1ccncc1 [SIH, Salicylaldehyde isonicotinoyl hydrazone]
- Ferritin-bound iron, normalized peak area (C. elegans iron-proteome): approximately 50%
- iron associated with the LMW peak, normalized peak area (C. elegans iron-proteome): approximately 40%
- iron bound within HMW species (C. elegans iron-proteome): unaffected
- increase in 4-HNE protein adducts with age [1]: suppressed
- growth of OP50 E. coli (OD600) (OP50 E. coli): neither Lip-1 nor SIH suppressed bacterial growth
- % median Ý, Mean of 8 replicates (C. elegans strain TJ1060; 250 μM SIH): +101%
- max lifespan, Mean of 8 replicates (C. elegans strain TJ1060; 250 μM SIH, 25 (±1)° C): 22 days
- median lifespan, Mean of 8 replicates (C. elegans strain TJ1060; 250 μM SIH, 25 (±1)° C): 16 days
- max lifespan (C. elegans strain TJ1060; [4]): 19 days (2×) and 23 days and 20 days and 18 days and 24 days and 29 days and 26 days
- median lifespan (C. elegans strain TJ1060; [4]): 14* days (4×) and 16* days (2×) and 17* days and 20* days
- % median Ý (median lifespan vs control) (C. elegans strain TJ1060; 250 μM SIH, single replicate experiments 1-8): 100% and 75% (2×) and 78% and 129% and 56% and 143% and 150%
- average increase in median lifespan (C. elegans strain TJ1060): ~100%
- effect on survival curve (C. elegans strain TJ1060): extended mid-life with a squaring of the survival curve
- lifespan extension on co-administration (C. elegans [2]; SIH and the antibiotic ampicillin co-administered): additive effect on media lifespan extension
- increase of median lifespan (C. elegans [2]; SIH in the absence of ampicillin): 7 days
- increase of median lifespan (C. elegans [2]; SIH in the presence of ampicillin): 6 days

Structure (SMILES): Clc1cccc(CNC2=Nc3ccccc3NC23CCNCC3)c1 [Lip-1, N-[(3-chlorophenyl)methyl]-spiro[piperidine-4,2′(1′H)-quinoxalin]-3′-amine]
- increase in 4-HNE protein adducts with age [1]: suppressed
- growth of OP50 E. coli (OD600) (OP50 E. coli): neither Lip-1 nor SIH suppressed bacterial growth
- % median Ý, Mean of 8 replicates (C. elegans strain TJ1060; 200 μM Lip-1): +72%
- max. lifespan, Mean of 8 replicates (C. elegans strain TJ1060; 200 μM Lip-1, 25 (±1)° C): 25 days
- median lifespan, Mean of 8 replicates (C. elegans strain TJ1060; 200 μM Lip-1, 25 (±1)° C): 13 days
- max. lifespan (C. elegans strain TJ1060; [5]): 25 days (2×) and 20 days and 24 days (2×) and 26 days (2×) and 27 days
- median lifespan (C. elegans strain TJ1060; [5]): 13* days and 11† days and 14* days (4×) and 12* days and 15* days
- % median Ý (median lifespan vs control) (C. elegans strain TJ1060; 200 μM Lip-1, single replicate experiments 1-8): 86% and 38% and 56% (2×) and 100% and 50% and 114% and 75%
- average increase in median lifespan (C. elegans strain TJ1060): ~70%
- effect on survival curve (C. elegans strain TJ1060): primarily altered late life survival

Structure (SMILES): CCOC(=O)/C=C\C(=O)OCC [DEM, Diethyl maleate]
- effect on lifespan as reported (C. elegans [3]): increasing lifespan via hormesis
